“Also recorded” adds a separate entry of the source.
Experiments:
[1] = Solubility in cell culture medium; format: physicochemical; conditions: plasma or biological fluid
[2] = tested on: RAD52 OB mutant (K102A/K103A/K169A/R173A); experiment: FRET-based inhibition of ssDNA binding, outer binding defective RAD52 mutant; design: species or system human; conditions: for fold lower IC50 (increased efficiency) against OB mutant compared to IB mutant: Z56: wild type and IB mutant within the fitting error
Protocol: (§1) Proteins: The 6×His-tagged human RAD52 proteins (wild type and mutants) and untagged human RPA were expressed and purified as previously described in (Hengel S R, eLife. 2016; 5; Grimme J M, et al., Nucleic Acids Res. 2010; 38(9):2917-30; and Henricksen L A, et al., The Journal of biological chemistry. 1994; 269(15):11121-32). RPA and RAD52 protein concentrations were determined by measuring absorbance at 280 nm using extinction coefficients of 88,830 M^−1 cm^−1 and 40,470 M^−1 cm^−1, respectively.
(§2) FRET-based DNA binding and inhibition assays: FRET-based that monitor the RAD52-ssDNA, RPA-ssDNA and RAD52-RPA-ssDNA binding were carried out as previously described (Hengel S R, eLife. 2016; 5; Grimme J M, et al., Nucleic Acids Res. 2010; 38(9):2917-30; and Grimme J M, Spies M. FRET-based assays to monitor DNA binding and annealing by Rad52 recombination mediator protein. Methods in molecular biology (Clifton, NJ). 2011; 745:463-83) using Cary Eclipse Spectrofluorimeter (Agilent) at 25° C., in 5 mm quartz cuvettes, and in buffer containing 30 mM Tris-Acetate (pH 7.5) and 1 mM DTT. Cy3 dye was excited at 530 nm and its emission was monitored at 565 nm. Emission of Cy5 acceptor fluorophore excited through the energy transfer from Cy3 donor is monitored at 660 nm simultaneously with emission of Cy3 dye. Both the excitation and the emission slits were set to 10 nm. All experiments were carried out using 1 nM (molecules) Cy3-dT30-Cy5 ssDNA. The optimal concentrations of the RAD52 (6 nM) and RPA (1 nM) proteins were selected by titrating the respective protein into 1 nM Cy3-dT30-Cy5 solution, and chosen based on the largest separation of the FRET values corresponding to the protein bound and free DNA.
(§3) The inhibition of the RAD52-ssDNA, RPA-ssDNA and RAD52-RPA-ssDNA complexes was evaluated by titrating each compound to the respective complex, measuring Cy3 and Cy5 fluorescence, and calculating FRET as previously described (Hengel, S. R., et al., eLife, 5).
Spectral properties of many compounds overlapped with the Cy3 and Cy5 fluorescence. To correct the calculated FRET values for the compound signal, the fluorogenic compounds were titrated into buffer and into solution of 1 nM Cy3-dT30-Cy5. For all tested compounds, the change in the signal in the Cy3 and Cy5 channels with and without Cy3/Cy5-labeled DNA present was the same. […] To account for the dye fluorescence, for each compound concentration, the apparent change in FRET of the ssDNA in the presence the compound was subtracted from the respective FRET signal of the RAD52-ssDNA, RPA-ssDNA or RAD52-ssDNA-RPA complex at the same inhibitor concentration. The IC50 values were calculated by fitting the corrected FRET data to the four-parameter dose response model using GraphPad Prism. […]

RPA-ssDNA-RAD52 complex = target: T1, RPA-ssDNA-RAD52 complex (Homo sapiens, UniProt P43351); experiment: FRET-based inhibition of the RPA-ssDNA-RAD52 complex; format: binding; conditions: for effect on the RPA-ssDNA-RAD52 complex: FRET titration
T1 construct: 6xHis; made in house
T1 sequence (P43351 1-418): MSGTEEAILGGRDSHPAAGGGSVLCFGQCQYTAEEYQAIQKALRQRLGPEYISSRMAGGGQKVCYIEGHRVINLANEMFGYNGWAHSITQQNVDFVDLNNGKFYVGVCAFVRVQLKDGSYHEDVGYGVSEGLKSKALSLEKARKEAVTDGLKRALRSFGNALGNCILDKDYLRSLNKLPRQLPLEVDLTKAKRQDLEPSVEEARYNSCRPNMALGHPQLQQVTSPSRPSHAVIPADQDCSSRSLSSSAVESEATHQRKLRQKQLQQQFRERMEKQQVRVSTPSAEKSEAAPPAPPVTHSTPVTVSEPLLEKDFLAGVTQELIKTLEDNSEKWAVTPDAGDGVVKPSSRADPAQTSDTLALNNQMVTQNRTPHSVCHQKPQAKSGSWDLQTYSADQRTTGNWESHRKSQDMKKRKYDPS
Protocol: as §1, §2, §3
(§4) Spectral properties of many compounds overlapped with the Cy3 and Cy5 fluorescence. To correct the calculated FRET values for the compound signal, the fluorogenic compounds were titrated into buffer and into solution of 1 nM Cy3-dT30-Cy5. For all tested compounds, the change in the signal in the Cy3 and Cy5 channels with and without Cy3/Cy5-labeled DNA present was the same. […] To account for the dye fluorescence, for each compound concentration, the apparent change in FRET of the ssDNA in the presence the compound was subtracted from the respective FRET signal of the RAD52-ssDNA, RPA-ssDNA or RAD52-ssDNA-RPA complex at the same inhibitor concentration. The IC50 values were calculated by fitting the corrected FRET data to the four-parameter dose response model using GraphPad Prism. All data are shown as average for at least three independent experiments ±standard deviation. The IC50 values are presented with their respective fitting error.

RAD52-ssDNA interaction = target: T2, RAD52-ssDNA interaction (Homo sapiens, UniProt P43351); experiment: FRET-based inhibition of the RAD52-ssDNA interaction; format: binding; conditions: for effect on the RAD52-ssDNA complex / capacity to inhibit RAD52: FRET titration; for selectivity towards RAD52 over RPA: in vitro FRET-based assays
T2 construct: 6xHis; made in house
T2 sequence (P43351 1-418): T1 sequence (P43351 1-418)
Protocol: as §1, §2, §3, §4

RPA-ssDNA interaction = target: T3, RPA-ssDNA interaction (Homo sapiens, UniProt P27694); experiment: FRET-based inhibition of the RPA-ssDNA interaction; format: binding; conditions: FRET titration
T3 construct: made in house
T3 sequence (P27694 whole entry): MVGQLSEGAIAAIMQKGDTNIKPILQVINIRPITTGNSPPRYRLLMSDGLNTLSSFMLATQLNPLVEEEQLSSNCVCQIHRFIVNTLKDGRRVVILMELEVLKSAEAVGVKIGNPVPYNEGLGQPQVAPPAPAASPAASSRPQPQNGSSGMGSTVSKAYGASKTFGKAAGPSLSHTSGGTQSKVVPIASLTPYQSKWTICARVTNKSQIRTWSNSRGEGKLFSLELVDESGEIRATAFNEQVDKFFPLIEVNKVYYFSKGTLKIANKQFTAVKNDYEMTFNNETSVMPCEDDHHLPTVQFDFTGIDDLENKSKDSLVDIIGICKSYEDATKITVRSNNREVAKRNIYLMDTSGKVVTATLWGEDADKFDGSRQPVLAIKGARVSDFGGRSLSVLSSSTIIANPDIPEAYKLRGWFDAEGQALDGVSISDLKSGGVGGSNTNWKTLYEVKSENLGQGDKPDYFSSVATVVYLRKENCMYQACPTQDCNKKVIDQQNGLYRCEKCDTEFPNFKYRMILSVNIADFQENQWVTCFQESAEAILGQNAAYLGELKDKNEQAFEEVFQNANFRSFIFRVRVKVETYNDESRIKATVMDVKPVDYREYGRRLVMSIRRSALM
T3 sequence (P15927 whole entry partner): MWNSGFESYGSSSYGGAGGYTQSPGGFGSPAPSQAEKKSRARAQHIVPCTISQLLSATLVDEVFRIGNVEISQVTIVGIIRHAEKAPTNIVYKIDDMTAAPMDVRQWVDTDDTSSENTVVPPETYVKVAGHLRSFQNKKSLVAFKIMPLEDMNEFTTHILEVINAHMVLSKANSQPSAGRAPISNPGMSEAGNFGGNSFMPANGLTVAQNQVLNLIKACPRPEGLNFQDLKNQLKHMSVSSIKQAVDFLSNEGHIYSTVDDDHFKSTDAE
T3 sequence (P35244 whole entry partner): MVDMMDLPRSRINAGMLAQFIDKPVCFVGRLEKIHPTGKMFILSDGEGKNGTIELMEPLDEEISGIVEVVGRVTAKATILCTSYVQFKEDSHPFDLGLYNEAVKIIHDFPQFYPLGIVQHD
Protocol: as §1, §2, §3, §4

O=C(Cn1cccc([N+](=O)[O-])c1=O)c1c[nH]c2ccccc12 [Example 1]
solubility [1]: > 100 µM | inhibition of ssDNA binding to OB mutant RAD52 [2]: able to inhibit | fold lower IC50 (increased efficiency) against OB mutant compared to IB mutant [2]: 6 fold | effect on the RPA-ssDNA-RAD52 complex (RPA-ssDNA-RAD52 complex): yields FRET values corresponding to the free ssDNA | effect on the RAD52-ssDNA complex / capacity to inhibit RAD52 (RAD52-ssDNA interaction): FRET decrease | selectivity towards RAD52 over RPA (RAD52-ssDNA interaction; listed as Z99): more promiscuous also inhibiting RPA; also recorded: more promiscuous, inhibited RPA in vitro | effect on the RPA-ssDNA complex (RPA-ssDNA interaction): yields FRET values corresponding to the free ssDNA

COc1ccccc1NS(=O)(=O)c1cc(C(=O)O)ccc1C [Example 8]
inhibition of ssDNA binding to OB mutant RAD52 [2]: able to inhibit | fold lower IC50 (increased efficiency) against OB mutant compared to IB mutant [2]: 6 fold | effect on the RPA-ssDNA-RAD52 complex (RPA-ssDNA-RAD52 complex): decreases the FRET values of the RPA-ssDNA-RAD52 complex | fold lower IC50 for the RPA-ssDNA-RAD52 complex than for the RAD52-ssDNA complex (RPA-ssDNA-RAD52 complex; wild type RAD52): 6 fold | effect on the RAD52-ssDNA complex / capacity to inhibit RAD52 (RAD52-ssDNA interaction): FRET decrease | selectivity towards RAD52 over RPA (RAD52-ssDNA interaction; listed as Z56): specific to RAD52 over RPA in vitro; also recorded: shows selectivity towards RAD52 over RPA | effect on the RPA-ssDNA complex (RPA-ssDNA interaction; listed as Z56): does not change the FRET values of the RPA-ssDNA complex; also recorded: no effect on the RPA-ssDNA complex

— patent publication US20260193227A1, “THERAPEUTIC COMPOUNDS AND METHODS” (UNIVERSITY OF IOWA RESEARCH FOUNDATION, priority 2022, published 2026)
